What follows are compounds tested against T1, h-jak3(810-1124) (JAK3: Recombinant human kinase domain) (Homo sapiens, UniProt P52333) (assay: Determination of IC50 of Janus Kinase (JAK) inhibition: JAK3 radioactive end-point 33P-ATP kinase assay). Conditions: no additive; ATP 1.5 uM, peptide 50 uM, 20 minutes, room temperature; read-out: Ic50 h-jak3(810-1124)-sf9-c: no additive.
T1 construct: jak3(810- 1124)-sf9-c; made in house; host or cells: Sf9
Type: biochemical

T1 sequence (P52333 810-1124): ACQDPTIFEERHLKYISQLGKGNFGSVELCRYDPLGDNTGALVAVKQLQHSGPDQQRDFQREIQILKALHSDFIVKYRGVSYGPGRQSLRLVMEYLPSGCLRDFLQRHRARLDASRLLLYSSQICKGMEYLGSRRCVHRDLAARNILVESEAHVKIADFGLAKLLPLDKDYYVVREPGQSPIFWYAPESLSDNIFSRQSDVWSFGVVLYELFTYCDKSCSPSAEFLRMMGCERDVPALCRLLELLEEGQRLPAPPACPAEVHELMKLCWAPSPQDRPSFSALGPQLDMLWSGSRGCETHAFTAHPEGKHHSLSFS

Row | SMILES | IC50 [nM]
1 | C[C@@H](NC(=O)c1c[nH]c2ncc(-c3cc(-n4cccc4)ccn3)nc12)C(=O)N1CC(C#N)C1 [Example I-153, 2-(4-Pyrrol-1-yl-pyridin-2-yl)-5H-pyrrolo[2,3-b]pyrazine-7-carboxylic acid [(R)-2-(3-cyano-azetidin-1-yl)-1-methyl-2-oxo-ethyl]-amide] | 9.02
2 | N#CC1CN(C(=O)[C@H](NC(=O)c2c[nH]c3ncc(-c4cn(-c5cc(F)cc(F)c5F)cn4)nc23)C2CC2)C1 [Example I-133, 2-[1-(2,3,5-Trifluoro-phenyl)-1H-imidazol-4-yl]-5H-pyrrolo[2,3-b]pyrazine-7-carboxylic acid [(R)-2-(3-cyano-azetidin-1-yl)-1-cyclopropyl-2-oxo-ethyl]-amide] | 1.67
3 | O=C(N[C@@H](C(=O)N1CCCC1)C1CCCCC1)c1c[nH]c2ncc(C3CC3)nc12 [Example I-37, 2-Cyclopropyl-5H-pyrrolo[2,3-b]pyrazine-7-carboxylic acid ((R)-1-cyclohexyl-2-oxo-2-pyrrolidin-1-yl-ethyl)-amide] | 1.8
4 | C[C@@H](NC(=O)c1c[nH]c2ncc(-c3cc4nccc(N5CCCC5)c4s3)nc12)C(=O)N1CC(C#N)C1 [Example I-101, 2-(7-Pyrrolidin-1-yl-thieno[3,2-b]pyridin-2-yl)-5H-pyrrolo[2,3-b]pyrazine-7-carboxylic acid [(R)-2-(3-cyano-azetidin-1-yl)-1-methyl-2-oxo-ethyl]-amide] | 37
5 | CC(C)(C)[C@@H](NC(=O)c1c[nH]c2ncc(OC3CCCC3)nc12)C(=O)N1CCC(C#N)CC1 [Example I-92, 2-Cyclopentyloxy-5H-pyrrolo[2,3-b]pyrazine-7-carboxylic acid [(R)-1-(4-cyano-piperidine-1-carbonyl)-2,2-dimethyl-propyl]-amide] | 10.9
6 | C[C@@H](NC(=O)c1c[nH]c2ncc(-c3cccc(N4CCC(C)(C)C4)c3)nc12)C(=O)N1CC(C#N)C1 [Example I-123, 2-[3-(3,3-Dimethyl-pyrrolidin-1-yl)-phenyl]-5H-pyrrolo[2,3-b]pyrazine-7-carboxylic acid [(R)-2-(3-cyano-azetidin-1-yl)-1-methyl-2-oxo-ethyl]-amide] | 0.62
7 | C[C@@H](NC(=O)c1c[nH]c2ncc(C3CC3)nc12)C(=O)N1CCC(F)(F)C1 [Example I-21, 2-Cyclopropyl-5H-pyrrolo[2,3-b]pyrazine-7-carboxylic acid [(R)-2-(3,3-difluoro-pyrrolidin-1-yl)-1-methyl-2-oxo-ethyl]-amide] | 14.9
8 | CC(C)(C)C[C@@H](NC(=O)c1c[nH]c2ncc(C3CC3)nc12)C(=O)N1CCC(C#N)CC1 [Example I-49, 2-Cyclopropyl-5H-pyrrolo[2,3-b]pyrazine-7-carboxylic acid [(R)-1-(4-cyano-piperidine-1-carbonyl)-3,3-dimethyl-butyl]-amide] | 1.01
9 | C[C@@H](NC(=O)c1c[nH]c2ncc(C3CC3)nc12)C(=O)N1CCC(O)C1 (stereo partly drawn) [Example I-11, 2-Cyclopropyl-5H-pyrrolo[2,3-b]pyrazine-7-carboxylic acid [(R)-2-(3-hydroxy-pyrrolidin-1-yl)-1-methyl-2-oxo-ethyl]-amide] | 91.5
10 | O=C(N[C@@H](C(=O)N1CCCC1)C1CCCC1)c1c[nH]c2ncc(C3CC3)nc12 [Example I-26, 2-Cyclopropyl-5H-pyrrolo[2,3-b]pyrazine-7-carboxylic acid ((R)-1-cyclopentyl-2-oxo-2-pyrrolidin-1-yl-ethyl)-amide] | 3.98
11 | C[C@@H](NC(=O)c1c[nH]c2ncc(-c3cccc(C(=O)NCC4CC4)c3)nc12)C(=O)N1CC(C#N)C1 [Example I-112, 2-[3-(Cyclopropylmethyl-carbamoyl)-phenyl]-5H-pyrrolo[2,3-b]pyrazine-7-carboxylic acid [(R)-2-(3-cyano-azetidin-1-yl)-1-methyl-2-oxo-ethyl]-amide] | 0.97
12 | Cn1cc(-c2cnc3[nH]cc(C(=O)N[C@@H](C(=O)N4CC(C)(C#N)C4)C4CC4)c3n2)cn1 [Example I-142, 2-(1-Methyl-1H-pyrazol-4-yl)-5H-pyrrolo[2,3-b]pyrazine-7-carboxylic acid [(R)-2-(3-cyano-3-methyl-azetidin-1-yl)-1-cyclopropyl-2-oxo-ethyl]-amide] | 0.47
13 | C[C@@H](NC(=O)c1c[nH]c2ncc(-c3cc(C4=CCCC4)ccn3)nc12)C(=O)N1CC(C#N)C1 [Example I-113, 2-(4-Cyclopent-1-enyl-pyridin-2-yl)-5H-pyrrolo[2,3-b]pyrazine-7-carboxylic acid [(R)-2-(3-cyano-azetidin-1-yl)-1-methyl-2-oxo-ethyl]-amide] | 3.71
14 | N#CC1CCN(C(=O)[C@H](NC(=O)c2c[nH]c3ncc(-c4cn(C5CCCC5)nn4)nc23)C2CC2)CC1 [Example I-107, 2-(1-Cyclopentyl-1H-[1,2,3]triazol-4-yl)-5H-pyrrolo[2,3-b]pyrazine-7-carboxylic acid [(R)-2-(4-cyano-piperidin-1-yl)-1-cyclopropyl-2-oxo-ethyl]-amide] | 6.57
15 | Cc1nc(-c2cnc3[nH]cc(C(=O)N[C@@H](C(=O)N4CC(C#N)C4)C4CC4)c3n2)cn1-c1ccccc1 [Example I-159, 2-(2-Methyl-1-phenyl-1H-imidazol-4-yl)-5H-pyrrolo[2,3-b]pyrazine-7-carboxylic acid [(R)-2-(3-cyano-azetidin-1-yl)-1-cyclopropyl-2-oxo-ethyl]-amide] | 2.66
16 | CNC(=O)c1cccc(-c2cnc3[nH]cc(C(=O)N[C@H](C)C(=O)N4CC(C#N)C4)c3n2)c1 [Example I-110, 2-(3-Methylcarbamoyl-phenyl)-5H-pyrrolo[2,3-b]pyrazine-7-carboxylic acid [(R)-2-(3-cyano-azetidin-1-yl)-1-methyl-2-oxo-ethyl]-amide] | 1.22

Further lines, results first:

Row | IC50 [nM] | SMILES
17 | 6.05 | CC(C)(C)[C@@H](NC(=O)c1c[nH]c2ncc(-c3cc(C(F)(F)F)ccn3)nc12)C(=O)N1CCC(C#N)CC1 [Example I-118, 2-(4-Trifluoromethyl-pyridin-2-yl)-5H-pyrrolo[2,3-b]pyrazine-7-carboxylic acid [(R)-1-(4-cyano-piperidine-1-carbonyl)-2,2-dimethyl-propyl]-amide]
18 | 13.6 | CC(C)(C)[C@@H](NC(=O)c1c[nH]c2ncc(C3CC3)nc12)C(=O)N1CCCC(C#N)C1 (stereo partly drawn) [Example I-29, 2-Cyclopropyl-5H-pyrrolo[2,3-b]pyrazine-7-carboxylic acid [(R)-1-(3-cyano-piperidine-1-carbonyl)-2,2-dimethyl-propyl]-amide]
19 | 1.94 | CCn1cc(-c2cnc3[nH]cc(C(=O)N[C@@H](C(=O)N4CCCC4)C4CC4)c3n2)cn1 [Example I-27, 2-(1-Ethyl-1H-pyrazol-4-yl)-5H-pyrrolo[2,3-b]pyrazine-7-carboxylic acid ((R)-1-cyclopropyl-2-oxo-2-pyrrolidin-1-yl-ethyl)-amide]
20 | ≤ 0.32 | CC(C)(C)[C@@H](NC(=O)c1c[nH]c2ncc(-c3cnn(C4CC4)c3)nc12)C(=O)N1CCC(C#N)CC1 [Example I-78, 2-(1-Cyclopropyl-1H-pyrazol-4-yl)-5H-pyrrolo[2,3-b]pyrazine-7-carboxylic acid [(R)-1-(4-cyano-piperidine-1-carbonyl)-2,2-dimethyl-propyl]-amide]
21 | 2.74 | CC(C)(C)[C@@H](NC(=O)c1c[nH]c2ncc(-c3cn(CC4CC4)cn3)nc12)C(=O)N1CCC(C#N)CC1 [Example I-119, 2-(1-Cyclopropylmethyl-1H-imidazol-4-yl)-5H-pyrrolo[2,3-b]pyrazine-7-carboxylic acid [(R)-1-(4-cyano-piperidine-1-carbonyl)-2,2-dimethyl-propyl]-amide]
22 | 27 | O=C(NC(C(=O)N1CCCC1)C(F)(F)F)c1c[nH]c2ncc(C3CC3)nc12 (stereo not shown) [Example I-19, 2-Cyclopropyl-5H-pyrrolo[2,3-b]pyrazine-7-carboxylic acid [2,2,2-trifluoro-1-(pyrrolidine-1-carbonyl)-ethyl]-amide]
23 | 2.79 | CCn1cc(-c2cnc3[nH]cc(C(=O)N[C@@H](C(=O)N4CCC(F)(C5=NCCN5)C4)C(C)(C)C)c3n2)cn1 (stereo partly drawn) [Example I-38, 2-(1-Ethyl-1H-pyrazol-4-yl)-5H-pyrrolo[2,3-b]pyrazine-7-carboxylic acid {(R)-1-[3-(4,5-dihydro-1H-imidazol-2-yl)-3-fluoro-pyrrolidine-1-carbonyl]-2,2-dimethyl-propyl}-amide]
24 | 0.42 | Cn1cc(-c2cnc3[nH]cc(C(=O)N[C@@H](C(=O)N4CC(C)(C#N)C4)C(C)(C)C)c3n2)cn1 [Example I-143, 2-(1-Methyl-1H-pyrazol-4-yl)-5H-pyrrolo[2,3-b]pyrazine-7-carboxylic acid [(R)-1-(3-cyano-3-methyl-azetidine-1-carbonyl)-2,2-dimethyl-propyl]-amide]
25 | 0.79 | Cn1cc(-c2cnc3[nH]cc(C(=O)N[C@@H](C(=O)N4CC[C@@H](C#N)C4)C(C)(C)C)c3n2)cn1 [Example I-60, 2-(1-Methyl-1H-pyrazol-4-yl)-5H-pyrrolo[2,3-b]pyrazine-7-carboxylic acid [(R)-1-((R)-3-cyano-pyrrolidine-1-carbonyl)-2,2-dimethyl-propyl]-amide]
26 | 4.23 | Cn1cc(-c2cnc3[nH]cc(C(=O)N[C@@H](C(=O)N4CCS(=O)(=O)CC4)C4CC4)c3n2)cn1 [Example I-89, 2-(1-Methyl-1H-pyrazol-4-yl)-5H-pyrrolo[2,3-b]pyrazine-7-carboxylic acid [(R)-1-cyclopropyl-2-(1,1-dioxo-1λ^6-thiomorpholin-4-yl)-2-oxo-ethyl]-amide]
27 | 0.98 | CC(C)(C)[C@@H](NC(=O)c1c[nH]c2ncc(C3CC3)nc12)C(=O)N1CCCCC1 [Example I-32, 2-Cyclopropyl-5H-pyrrolo[2,3-b]pyrazine-7-carboxylic acid [(R)-2,2-dimethyl-1-(piperidine-1-carbonyl)-propyl]-amide]
28 | 4.53 | CCn1cc(-c2cnc3[nH]cc(C(=O)N[C@@H](C(=O)N4CCCC4)C(C)(C)C)c3n2)cn1 [Example I-13, 2-(1-Ethyl-1H-pyrazol-4-yl)-5H-pyrrolo[2,3-b]pyrazine-7-carboxylic acid [(R)-2,2-dimethyl-1-(pyrrolidine-1-carbonyl)-propyl]-amide]

From patent publication US8518945B2, “Pyrrolopyrazine kinase inhibitors” (Hoffmann-La Roche Inc., priority 2010, dated 2013)
